Laboratory results from patent publication US20140155445A1, “Compounds and Methods for Treating Cancer and Diseases of the Central Nervous System” (Osta Biotechnologies Inc., priority 2007, published 2014).
Values belong to the compound of their own block, whether it stands above or below them.

Legend:
SKMEL-V+ cells = test: Cell proliferation / survival, MTT assay, SKMEL-V+ cells; type: cell-based, human; conditions: 96 hours; for % cell survival: 6.25 μM to 100 μM
Description: Exponentially growing SKMEL-V+ cells (1×10^3) were seeded in 96-well plates in complete medium. […] Cell survival was evaluated 96 hours later using the MTT metabolic assay (Benlimame N, He Q, Jie S, et al. FAK signaling is critical for ErbB-2/ErbB-3 receptor cooperation for oncogenic transformation and invasion. J Cell Biol 2005; 171: 505-16).

APPswe/PS1dE9 mice = test: Behavioral studies (maze, fear conditioning) in APPswe/PS1dE9 mice; type: in vivo, mouse
Description: The experiments were performed at Pennington Biomedical Research Centre (PBRC) of Lousiana State University, Baton Rouge, Lousiana and were approved by the Institutional Animal Care and Use Committee (IACUC) of PBRC.
The APPswe/PS1dE9 mice were generated against a C57/BL6J background by breeding either +/+ males or females with −/− females or males, respectively.
Memantine (10 mg/kg) and both doses of QC-199 (15 mg/kg & 30 mg/kg) were prepared in batches and frozen for later use. Each compound was weighed and dissolved in injectable sterile saline solution. Memantine was prepared at a concentration of 1 mg/ml, the 15 mg/kg dose of QC-199 at a volume of 15 mg/10 ml, and the 30 mg/kg dose of QC-199 at a volume of 30 mg/10 ml. The compounds were prepared in this volume so that the mice could easily be injected based on their body weight, e.g., a 35 gram mouse was injected with 0.35 ml dosing solution.
Memantine and QC-199 dosing solutions were administered to mice via i.p. injections. The mice were weighed 3 times/week and were injected with a volume that matched their body weight. The mice were injected daily and the injection located was alternated each day to avoid potential complications from injection in the same location on a daily basis.
After reaching their respective treatment duration, the wild type and APP/PS1 double transgenic mice were run through the STM and fear conditioning. The STM consisted of one day of straight run training (running down an alley from the start box to the goal box). This phase was implemented to establish the contingency that moving forward would provide escape into the dark and dry goal box. The mice were required to reach a criterion of completing the straight run in 15 sec or less on 7 out of 9 trials over a maximum of 15 trials. […] The following day each mouse was administered 15 trials in the STM with approximately 7-10 min between each trial where they were placed into a holding cage with a towel. The latency to reach the goal box and the number of errors committed were the dependent measures of learning. However, in our experience, errors committed is much more indicative of learning and is reported for this project. Pictures of the straight run (A) and maze (B) are shown in FIG. 42, along with a schematic (C) of the maze indicating the correct path. The data from the maze was collapsed into blocks of 5 trials for data summary and presentation.
Med Associates Inc.'s MED-VFC-NIR-M NIR Video Fear Conditioning System for Mouse, Pavlovian fear conditioning was conducted after the STM. On Day 1 the mice were placed in Context 1 and given 5 tone+shock pairings. On day 2 the mice were placed back into Context 1 and their freezing response to being placed back into the original context where fear conditioning occurred was measured. Freezing is operationally defined as the cessation of all movement except that required for respiration. Freezing was measured over 10 minutes, and data were summarized in 1-min intervals. On day 3 the mice were placed into a novel context (Context 2) for 10 min. […] For the final 5 min, the tone paired with shock during fear conditioning was presented. Again, the data was summarized in 1-min intervals.
Maze data was analyzed by two-way ANOVAs to determine treatment group effects for both errors and run time after the data was collapsed into three 5 trial blocks. Planned comparisons of transgenic mice treated with saline with each of the drug treatments, memantine or QC-199 at 15 mg/kg/day and 30 mg/kg/day were conducted to evaluate group differences in the maze at each trial block and both tone and contextual fear conditioning tests. The critical a level was set at 0.05 for all statistical tests. The values in FIGS. 46A-46C represent the means±S.E.M. The data was analyzed using the SPSS statistical program version 11.0. […]

[1] = system: PC-3 (human prostate carcinoma); test: Prostate carcinoma model PC-3 in SCID mice
Description: • Species and strain: Mouse (Mus musculus); female SCID (MDA231 and OVCAR3), male SCID (PC-3, HCT116); male CD57 B16 mice (BL16-BL6) • Age: 6-8 weeks old. • Supplier: Charles River Laboratories, Inc., St-Constant, Quebec, Canada. • Acclimation: Mice were acclimated to laboratory conditions for approximately 1 week prior to tumor cell inoculation. • Identification: Mice were identified by ear punch combination. • Housing: Mice were housed in groups of 3-5 in a designated animal facility with a temperature of 22° C., a relative humidity of 40-50%, and a 12 hr light/dark cycle.
PC-3 (human prostate carcinoma). These cells were originally received from the ATCC. Early passage cells (tested free of mycoplasma) were grown to 60% confluence in DMEM medium supplemented with 10% fetal bovine serum, and antibiotics. Cell harvesting was performed using trypsin-EDTA solution.
Exponentially growing cells were harvested using trypsin-EDTA solution. […] Cell viability was confirmed by trypan blue staining. […] One to 2 millions cells suspended in 0.1 mL phosphate buffer solution was implanted into the mammary fat pad (MCF7) or subcutaneously into the axillary region of the right flank of recipient SCID mice. All animals were inoculated at the same site.
Mice were subjected to general examination on daily basis. […] Control groups received the vehicle alone. Chemotherapy drugs were also given by intraperitoneal route according to the schedule described below.
Primary tumor growth was monitored every second to fourth day using calipers. Relative tumor volume (cm^3) was determined by the formula:
Body weights were monitored every third to fifth day. Animals experiencing signs of discomfort were sacrificed immediately (in some cases they were replaced by spared mice). […] Mice were sacrificed by cervical dislocation and immediately subjected to full autopsy.

[2] = system: human metastatic prostate cancer PC-3M cells; test: Orthotopic PC-3M prostate cancer model in SCID mice; type: in vivo
Text: PC-3 & PC-3M (human prostate carcinoma). The PC-3 human prostate cancer cell line was originally obtained from the American Type Culture Collection (Rockville, Md.). The PC-3M cell line was kindly provided by Dr. Issac (MD Anderson Cancer Center). This cell variant was derived from a liver metastasis produced by the parental PC-3 cells growing in the spleen of a nude mouse [Pettaway C A, Pathak S, Greene G, et al. Selection of highly metastatic variants of different human prostate carcinomas utilizing orthotopic implantation in nude mice.
Male SCID mice were housed in laminar flow under specific pathogen-free conditions and used at 8-9 weeks of age. Animals were maintained in the LDI facilities approved by the Laboratory Animal Care in accordance with current Canadian regulations and standards for the use of animals for research.
Mice were anesthesized with isofluorane given by inhalation and placed in a supine position. […] A low midline incision was made and the prostate was exposed. Fifty microliters of HBSS containing 1×10^6 cells was injected into a lateral lobe of the prostate. The wound was closed with surgical metal clips in two layers, the muscle layer first and then the skin layer using stainless steel clips (autoclips: 9 mm; Clay Adams Inc., Parsippany, N.J.). […] Control groups received the vehicle alone. Taxol™ was given either ip or iv as indicated.
Primary tumors in the prostate were excised, measured, and weighed. When applicable, immunohistochemistry and H&E staining were conducted on one part of the tumor, fixed in formalin and embedded in paraffin or OCT compound (Miles Inc., Elkhart, Ind.); the later was rapidly frozen in liquid nitrogen, and stored at −70° C. Macroscopically enlarged regional lymph nodes were harvested and the presence of metastatic disease was confirmed by histology.
The in vivo data was analyzed using the Mann-Whitney U test.

[3] = QC-56 30 mg/kg intraperitoneally daily for 12 days, Taxol 10 mg/kg i.p. 3 cycles

melting point: 128 to 129 °C
Structure (SMILES): Cl.Clc1ccc(CC[C@@]2(Cn3ccnc3)OC[C@@H](CSc3cccc(Br)c3)O2)cc1

Structure (SMILES): C[C@@H]1CO[C@](CCc2ccc(Cl)cc2)(Cn2ccnc2)O1.Cl
melting point: 152 to 153 °C

melting point: 128 to 130 °C
Structure (SMILES): Cl.Oc1ccc(OC[C@H]2CO[C@@](CCc3ccc(Cl)cc3)(Cn3ccnc3)O2)cc1

Structure (SMILES): Cl.Clc1ccc(CC[C@@]2(Cn3ccnc3)OC[C@@H](CSc3ccc(Cl)cc3)O2)cc1
melting point: 128 to 129 °C

Structure (SMILES): Cl.Fc1ccc(SC[C@@H]2CO[C@@](CCc3ccc(Cl)cc3)(Cn3ccnc3)O2)cc1
melting point: 112 to 113 °C

melting point: 132 to 134 °C
Structure (SMILES): Cl.Clc1ccc(CC[C@@]2(Cn3ccnc3)OC[C@H](COc3ccc(C45CC6CC(CC(C6)C4)C5)cc3)O2)cc1

melting point: 86 to 87 °C
Structure (SMILES): Cl.OC(CCc1ccc(F)cc1)Cn1ccnc1 (racemic)

Structure (SMILES): OC(Cn1ccnc1)c1ccc(-c2ccc(Br)cc2)cc1 (racemic) [QC-304, (±)-1-(4′-bromo-biphenyl-4-yl)-2-imidazol-1-yl-ethanol]
% cell survival (SKMEL-V+ cells): no significant change in cell survival | potency in comparison with the other HO-1 inhibitors (SKMEL-V+ cells; 6.25 μM): most potent

melting point: 55 to 57 °C
Structure (SMILES): Cl.Clc1ccc(CC[C@@]2(Cn3ccnc3)OC[C@@H](COc3ccc(Br)cc3)O2)cc1 (stereo in doubt)

melting point: 113 to 114 °C
Structure (SMILES): Cl.Clc1ccc(CC[C@@]2(Cn3ccnc3)OC[C@@H](COc3ccc(I)cc3)O2)cc1 (stereo in doubt)

Structure (SMILES): CC12CC3CC(C)(C1)CC(N)(C3)C2 [Memantine, reference compound]
effect on maze errors and contextual fear conditioning (summary) (APPswe/PS1dE9 mice; Memantine, QC-199 15 mg/kg and 30 mg/kg, dtg mice): positive effect | maze errors vs saline-treated APP/PS1 mice (APPswe/PS1dE9 mice; QC-199 15 mg/kg/day i.p., Memantine 10 mg/kg i.p., improved at Trial Blocks 2 and 3, not 1): improved maze | contextual fear conditioning (freezing) vs saline-treated APP/PS1 mice (APPswe/PS1dE9 mice; QC-199 15 and 30 mg/kg/day, Memantine 10 mg/kg, Time Blocks 1-4): no significant differences | tone fear conditioning (freezing) vs saline-treated APP/PS1 mice (APPswe/PS1dE9 mice; QC-199 15 and 30 mg/kg/day, Memantine 10 mg/kg, Trial Blocks 3 and 4): no significant differences

Structure (SMILES): Cl.FC(F)(F)c1ccc(CCCCn2ccnc2)cc1 [QC-234, 1-[4-(4-(Trifluoromethyl)phenyl)butyl]-1H-imidazole hydrochloride]
% cell survival (SKMEL-V+ cells): Dose dependent decrease in cell survival

Structure (SMILES): CC(=O)O[C@H]1C(=O)[C@@]2(C)[C@H]([C@H](OC(=O)c3ccccc3)[C@]3(O)C[C@H](OC(=O)[C@H](O)[C@@H](NC(=O)c4ccccc4)c4ccccc4)C(C)=C1C3(C)C)[C@]1(OC(C)=O)CO[C@@H]1C[C@@H]2O [Taxol™, paclitaxel, reference compound]
Body Weights (g) d8 (mean + SE) ([1]; PC-3 mice, treatment day 8): 22.40 ± 7.92 g | Body Weights (g) d42 (mean + SE) ([1]; PC-3 mice, treatment day 42): 17.70 ± 6.25 g | inhibition of tumor growth compared to vehicle alone ([1]; QC-56 60 mg/kg/ip, Taxol 10 mg/kg): ~28% | inhibition of tumor growth [2, 3]: 64% | reduction in microscopic lymph node metastases [2, 3]: 82% | reduction in microscopic lymph node metastases ([2]; QC-56 40 mg/kg daily for 24 days, Taxol 10 mg/kg, 4 cycles): 47% | inhibition of tumor growth compared to untreated mice ([2]; QC-56 40 mg/kg daily for 24 days, Taxol 10 mg/kg, 4 cycles, 3 administrations per cycle): 45%
